Assay [1] has as its target T1, Sirt1 (Homo sapiens, UniProt Q96EB6).
T1 construct: made in house; host or cells: E. coli BL21 Star (DE3)
T1 sequence (Q96EB6 134-747): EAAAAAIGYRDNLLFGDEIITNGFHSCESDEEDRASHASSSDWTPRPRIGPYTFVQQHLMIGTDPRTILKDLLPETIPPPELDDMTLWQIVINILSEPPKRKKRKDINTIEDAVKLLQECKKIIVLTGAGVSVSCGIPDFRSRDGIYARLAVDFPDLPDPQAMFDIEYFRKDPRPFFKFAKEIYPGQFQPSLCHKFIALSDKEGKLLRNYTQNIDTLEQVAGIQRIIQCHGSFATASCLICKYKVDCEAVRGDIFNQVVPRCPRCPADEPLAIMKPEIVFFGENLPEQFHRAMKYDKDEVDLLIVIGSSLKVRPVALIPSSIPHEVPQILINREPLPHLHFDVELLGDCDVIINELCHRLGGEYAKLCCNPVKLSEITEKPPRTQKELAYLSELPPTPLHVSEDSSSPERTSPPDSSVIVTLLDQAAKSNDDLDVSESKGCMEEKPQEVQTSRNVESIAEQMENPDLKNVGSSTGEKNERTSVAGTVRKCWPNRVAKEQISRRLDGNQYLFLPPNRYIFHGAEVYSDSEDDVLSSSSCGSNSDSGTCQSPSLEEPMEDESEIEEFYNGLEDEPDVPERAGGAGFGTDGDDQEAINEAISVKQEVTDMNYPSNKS
Kind of assay: Fluorescent thermal shift assay (FTSA), Sirt1. Format: binding. Conditions: inhibitor 100 μM; read-out: Thermal shift assay: Δ Tm of Sirt1. On the procedure: In a 96-well plate (Hard-Shell® PCR-plates, 96-well, thin-wall, BioRAD, USA) 14 μL Sirt1_134−747 in assay buffer (0.3 mg/mL final assay concentration, 50 mM Tris/HCl, 137 mM NaCl, 2.7 mM KCl, 1 mM MgCL2, pH 8.0) were mixed with 1 μL inhibitor in DMSO (100 μM) or DMSO [final assay concentration 5% (v/v)] as a control and 5 μL SyproOrange (1:100 in assay buffer). The fluorescence intensity was monitored during a constant increase of temperature from 20 to 95°C, 1 K per 20 s, using a real-time-PCR-machine (C1000 TouchTM Thermal Cycler, CFX96TM Real-Time System, BioRAD, USA). Melting temperatures were calculated via GraphPad Prism according to a published procedure ([60]).

Assay [2] concerns the target T2, human Sirt2 (Homo sapiens, UniProt Q8IXJ6).
T2 construct: made in house; host or cells: E. coli BL21 Star (DE3)
T2 sequence (Q8IXJ6 56-356): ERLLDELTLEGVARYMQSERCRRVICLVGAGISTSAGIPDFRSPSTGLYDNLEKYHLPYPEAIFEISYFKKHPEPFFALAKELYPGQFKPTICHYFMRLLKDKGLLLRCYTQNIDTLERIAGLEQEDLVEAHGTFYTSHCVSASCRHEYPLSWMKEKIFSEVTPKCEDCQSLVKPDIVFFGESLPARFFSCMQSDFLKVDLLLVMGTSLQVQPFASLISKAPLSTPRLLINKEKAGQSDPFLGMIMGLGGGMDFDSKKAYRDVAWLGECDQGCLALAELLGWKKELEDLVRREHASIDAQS
Kind of assay: Homogeneous ZMAL-based fluorescence assay, Sirt2. Format: biochemical. Conditions: 4th round. On the procedure: Recombinant human Sirt5_37−310 was purchased readily in Tris Buffer [25 mM Tris, 100 mM NaCl, 5 mM DTT, 10% glycerol (v/v)] from Enzo Life Sciences (NY, USA). Human Sirt3_118−395 was expressed and purified as described previously ([54]). For expression of human Sirt1_134−747 and Sirt2_56−356 chemically competent cells of E. coli BL21 Star (DE3) were transformed with the expression vectors pET30S-hSirt1_134−747 or pET30S-hSirt2_56−356. Bacteria were grown at 37°C in 2×YT medium supplemented with 50 μg·mL^−1 of kanamycin to an OD600 of 0.6. Then isopropyl-β-D-1-thiogalactopyranoside (IPTG) was added to a final concentration of 1 mM to induce gene expression. After further cultivation at 20°C for 12 h, the cells were harvested by centrifugation for 15 min at 5,000 g. The cells were resuspended in lysis buffer [100 mM Tris/HCl buffer at pH 8.0, 150 mM NaCl and 10% (v/v) glycerol] and disrupted by ultrasonication (Branson Digital Sonifier 250) at 70% amplitude for 10 min (3 s working, 10 s pause). The crude extract was cleared by centrifugation at 100,000 g for 1 h, and the supernatant was loaded onto a Strep-Tactin Superflow cartridge (5 ml bed volume, IBA Lifescience, Germany). Target proteins were eluted with lysis buffer containing 5 mM D-Desthiobiotin (IBA Lifescience, Germany) and further separated by size-exclusion chromatography (Superdex S200 26/60, GE Healthcare, IL, USA) equilibrated in Tris/HCl buffer (20 mM, 150 mM NaCl, pH 8.0). Pure protein was concentrated by ultrafiltration, flash-frozen in liquid nitrogen and stored at −80°C until further use. Identity as well as purity were verified by SDS-PAGE ([55]) and protein concentration was determined by the bicinchoninic acid (BCA) method, using bovine serum albumin (BSA) as a standard ([56]). Deacetylase activity was confirmed to be NAD^+-dependent and could be inhibited with the physiological sirtuin inhibitor nicotinamide.
All compounds were tested in the trypsin-coupled high-throughput ZMAL-assay in black 96-well plates (OptiPlateTM−96F, black, 96 well, Pinch bar design, PerkinElmer, USA), using ZMAL (Z-Lys(acetyl)-AMC) as a substrate ([57]). Sirt1_134−747, Sirt2_56−356, and Sirt3_118−395 were mixed with 5 μL substrate (10.5 μM final assay concentration, diluted from a […] stock in DMSO) and 3 μL Inhibitor in DMSO at various concentrations or DMSO as a control [final DMSO concentration 5% (v/v)]. The mixture was supplemented with assay buffer (50 mM Tris/HCl, 137 mM NaCl, 2.7 mM KCl, 1 mM MgCL2, pH 8.0) to a total volume of 55 μL. Enzyme concentration was adjusted to get a final conversion of 20–30%. Addition of 5 μL NAD^+ (6 mM in assay buffer, final assay concentration of 500 μM) initiated the catalytic reaction and the plates were incubated at 37°C for 4 h with agitation at 140 rpm. The catalytic reaction was stopped by addition of 60 μL stop solution [50 mM Tris, 100 mM NaCl, 6.7% (V/V) DMSO, 5.5 U/μL trypsin, 8 μM nicotinamide, pH 8.0]. The plate was again incubated at 37°C and 140 rpm for 20 min to release free AMC from the deacetylated substrate by trypsin digestion. Afterwards, fluorescence intensity was measured in a microplate reader (λEx = 390 nm, λEm = 460 nm, BMG POLARstar Optima, BMG Labtech, Germany). An enzyme-free blank control and a 100% conversion control containing AMC instead of ZMAL were measured in addition. Inhibition was calculated in % in relation to a DMSO control after blank signal subtraction and IC50 values were determined using a non-linear regression to fit the dose-response curve with OriginPro 9G (OriginLab, USA). Pre-tests as well as IC50 determination was carried out at least twice in duplicates.

Usually inhibition stands for the share of the control response that was lost under treatment. Read a high inhibition as a strong effect. As to `COc1ccc(SC#N)cc1OCC(=O)N(CCC#N)CCC#N` [S1th 12], the ΔTm at 100 µM in assay [1] was -7.2 °C. Moreover, in assay [2], the inhibition at 50 µM is under 10%.

In the case of `N#CSc1cccc(NC(=O)[C@H]2CC=CC[C@H]2C(=O)O)c1` [S1th 10], in assay [1], the ΔTm at 100 µM was -5.9 °C. The compound further had an inhibition at 50 µM in assay [2] of under 10%.

With `CCCCNC(=O)Nc1cccc(SC#N)c1` [S1th 11], the ΔTm at 100 µM in assay [1] is -8.1 °C. The inhibition at 50 µM in assay [2] was under 10%.

`N#CSc1cc(SC#N)c(N)nc1N` [PR-619, reference compound] came in with an inhibition at 50 µM in assay [2] of 36%.

For the compound `N#CSc1cccc(NS(=O)(=O)c2ccc3c(c2)OCCO3)c1` [S1th 13], the ΔTm at 100 µM in assay [1] was -9.6 °C. The compound also gave an inhibition at 50 µM in assay [2] of under 10%.

Source of the values: publication PMC7203344, “Sirtuin 1 Inhibiting Thiocyanates (S1th)—A New Class of Isotype Selective Inhibitors of NAD^+ Dependent Lysine Deacetylases” (Frontiers in Oncology, 2020).
